≈ marks a conversion by molar mass, not a printed value. Where “and” joins values, the source holds several entries; their conditions need not be identical. Identical values can stand only once. Values belong to the compound of their own block, whether it stands above or below them.
Assays:
Assay in all cases: ≥ marks a high value that may be exact or a test limit, other limits are often not marked, values filed in µg/mL are converted to µM
[1] = system: Bacillus cereus CMCC 6303
[2] = system: Cronobacter sakazakii ATCC 29544
Escherichia coli UB1005 = system: Escherichia coli UB1005
[3] = system: Listeria monocytogenes CMCC 54004
[4] = system: Salmonella enterica subsp. enterica CMCC 47020
[5] = system: Salmonella enterica subsp. enterica serovar Pullorum C79-13
[6] = system: Salmonella enterica subsp. enterica serovar Typhi CMCC 50071
[7] = system: Salmonella enterica subsp. enterica serovar Typhimurium ATCC 14028
[8] = system: Salmonella enterica subsp. enterica serovar Typhimurium C77-31
[9] = system: Staphylococcus aureus ATCC 25923
[10] = system: Staphylococcus aureus CMCC 26074
[11] = system: Bacillus subtilis ATCC 6633
[12] = system: Candida albicans ATCC 10231
[13] = system: Candida parapsilosis ATCC 22019
Cryptococcus neoformans = system: Cryptococcus neoformans
[14] = system: Escherichia coli ATCC 9637
[15] = system: Klebsiella pneumoniae ATCC 27736
[16] = system: Pseudomonas aeruginosa ATCC BAA-427
[17] = system: Staphylococcus aureus ATCC 29213
[18] = system: Staphylococcus aureus ATCC 33592
[19] = system: Staphylococcus aureus ATCC 700698
[20] = system: Staphylococcus aureus ATCC 700699
[21] = system: Staphylococcus aureus ATCC BAA-44
[22] = system: Agrobacterium tumefaciens DSM 3129
[23] = system: Bacillus megaterium QMB 1551
[24] = system: Bacillus subtilis NRRL B-237
[25] = system: Bacillus thuringiensis serovar tenebrionis DSM 2803
[26] = system: Brenneria salicis NCPPB 2530
[27] = system: Clavibacter michiganensis subsp. insidiosus NCPPB 1109
[28] = system: Escherichia coli NCTC 9001
[29] = system: Paenibacillus alvei LMG 6922
[30] = system: Pseudomonas syringae pv. tomato NCPPB 1106
[31] = system: Salmonella enterica subsp. enterica serovar Newport
[32] = system: Salmonella typhimurium ATCC 23565
[33] = system: Serratia marcescens ATCC 17991
Shigella flexneri CP87 = system: Shigella flexneri CP87
[34] = system: Sinorhizobium meliloti ZB314
[35] = system: Acinetobacter baumannii ATCC 17978
[36] = system: Escherichia coli ATCC 8739
[37] = system: Staphylococcus aureus HNCMO 112011
[38] = system: Bacillus subtilis DSM 347
[39] = system: Escherichia coli DSM 1116
[40] = system: Franconibacter helveticus DSM 18390
[41] = system: Staphylococcus xylosus DSM 20267
[42] = system: Candida albicans ATCC MYA-2876
[43] = system: Candida tropicalis ATCC 750

Structure (SMILES): CC[C@H](C)[C@H](NC(=O)[C@H](CCCN=C(N)N)NC(=O)[C@H](CCCN=C(N)N)NC(=O)[C@H](Cc1c[nH]c2ccccc12)NC(=O)[C@@H](N)CCCN=C(N)N)C(=O)N[C@H](C(=O)N[C@H](C(=O)N[C@H](C(=O)N[C@@H](CCCN=C(N)N)C(=O)N[C@H](C(=O)N[C@@H](CCCN=C(N)N)C(=O)N[C@@H](CCCN=C(N)N)C(N)=O)C(C)C)[C@@H](C)CC)C(C)C)C(C)C [RWRRIVVIRVRR]
MIC [1]: ≥ 64 µM
MIC [2]: 16 µM (≈ 26.6 µg/mL)
MIC (Escherichia coli UB1005): 16 µM (≈ 26.6 µg/mL)
MIC [3]: 2 µM (≈ 3.33 µg/mL)
MIC [4]: ≥ 128 µM
MIC [5]: ≥ 32 µM
MIC [6]: 8 µM (≈ 13.3 µg/mL)
MIC [7]: 32 µM (≈ 53.3 µg/mL)
MIC [8]: ≥ 32 µM
MIC [9]: 256 µM (≈ 426 µg/mL)
MIC [10]: ≥ 64 µM

Structure (SMILES): CC[C@H](C)[C@H](NC(=O)[C@@H]1CCCN1C(=O)[C@H](CCCN=C(N)N)NC(=O)[C@H](CC(N)=O)NC(=O)[C@H](CC(N)=O)NC(=O)CN)C(=O)N[C@@H](Cc1ccc(O)cc1)C(=O)N[C@H](C(=O)N1CCC[C@H]1C(=O)N[C@@H](CCC(N)=O)C(=O)N1CCC[C@H]1C(=O)N[C@@H](CCCN=C(N)N)C(=O)N1CCC[C@H]1C(=O)N1CCC[C@H]1C(=O)N[C@@H](Cc1cnc[nH]1)C(=O)N1CCC[C@H]1C(=O)N[C@@H](CCCN=C(N)N)C(=O)N[C@@H](CC(C)C)C(=O)O)[C@@H](C)CC [GNNRPIYIPQPRPPHPRL]
MIC [22]: 0.0942 µM (≈ 0.2 µg/mL)
MIC [23]: ≥ 47.1 µM
MIC [24]: ≥ 94.2 µM
MIC [25]: ≥ 94.2 µM
MIC [26]: 0.0094 µM (≈ 0.02 µg/mL)
MIC [27]: ≥ 47.1 µM
MIC [28]: 0.0942 µM (≈ 0.2 µg/mL)
MIC [29]: ≥ 94.2 µM
MIC [30]: 0.0471 µM (≈ 0.1 µg/mL)
MIC [31]: 0.0942 µM (≈ 0.2 µg/mL)
MIC [32]: 0.0471 µM (≈ 0.1 µg/mL)
MIC [33]: ≥ 94.2 µM
MIC (Shigella flexneri CP87): 0.0471 µM (≈ 0.1 µg/mL)
MIC [34]: 0.0094 µM (≈ 0.02 µg/mL)

Structure (SMILES): CC(C)C[C@H](NC(=O)[C@H](CCCCN)NC(=O)[C@H](CC(C)C)NC(=O)[C@H](CCCCN)NC(=O)[C@H](CC(C)C)NC(=O)[C@@H](N)CCCCN)C(N)=O [KLKLKL]
MIC [38]: ≥ 345 µM
MIC [39]: ≥ 345 µM
MIC [40]: ≥ 345 µM
MIC [41]: ≥ 345 µM

The next lines start with the values.

MIC [11]: 15.2 µM (≈ 24.6 µg/mL)
MIC [12]: 30 µM (≈ 48.6 µg/mL)
MIC [13]: 30 µM (≈ 48.6 µg/mL)
MIC (Cryptococcus neoformans): 15 µM (≈ 24.3 µg/mL)
MIC [14]: 12.5 µM (≈ 20.3 µg/mL)
MIC [15]: 15 µM (≈ 24.3 µg/mL)
MIC [16]: 15 µM (≈ 24.3 µg/mL)
MIC [9]: 25 µM and 30 µM and 15.4 µM
MIC [17]: > 30 µM
MIC [18]: 30 µM (≈ 48.6 µg/mL)
MIC [19]: 30 µM (≈ 48.6 µg/mL)
MIC [20]: 30 µM (≈ 48.6 µg/mL)
MIC [21]: 30 µM (≈ 48.6 µg/mL)
Structure (SMILES): CC[C@H](C)[C@H](NC(=O)[C@H](CCCN=C(N)N)NC(=O)CNC(=O)[C@H](CC(C)C)NC(=O)[C@H](CCCCN)NC(=O)[C@H](CCCCN)NC(=O)[C@H](CO)NC(=O)[C@H](Cc1ccccc1)NC(=O)[C@H](Cc1c[nH]c2ccccc12)NC(=O)[C@H](CCCCN)NC(=O)[C@@H](NC(=O)[C@@H](N)Cc1ccccc1)C(C)C)C(=O)N[C@@H](CC(C)C)C(N)=O [FVKWFSKKLGRIL]

MIC [35]: 25 µM (≈ 66.9 µg/mL)
MIC [36]: 25 µM (≈ 66.9 µg/mL)
MIC [37]: 25 µM (≈ 66.9 µg/mL)
Structure (SMILES): CC(C)C[C@H](NC(=O)[C@@H]1CCCN1C(=O)[C@H](CCCN=C(N)N)NC(=O)[C@H](CCCN=C(N)N)NC(=O)[C@H](CS)NC(=O)[C@H](CCC(N)=O)NC(=O)[C@@H](N)CCC(N)=O)C(=O)N[C@@H](Cc1ccc(O)cc1)C(=O)N[C@@H](CS)C(=O)N[C@@H](CCCN=C(N)N)C(=O)N[C@@H](CCCN=C(N)N)C(=O)N[C@@H](CCCN=C(N)N)C(=O)N[C@@H](Cc1c[nH]c2ccccc12)C(=O)N[C@@H](CO)C(=O)N[C@@H](Cc1cnc[nH]1)C(=O)N1CCC[C@H]1C(=O)N[C@@H](CCC(N)=O)C(=O)N[C@@H](Cc1ccccc1)C(=O)N[C@@H](CCC(=O)O)C(=O)N[C@@H](CCCCN)C(=O)O [QQCRRPLYCRRRWSHPQFEK]

MIC [42]: ≥ 40 µM
MIC [43]: ≥ 40 µM
Structure (SMILES): CC[C@H](C)[C@H](NC(=O)[C@H](Cc1ccc(O)cc1)NC(=O)[C@@H](N)CCCN=C(N)N)C(=O)N[C@@H](Cc1ccc(O)cc1)C(=O)N[C@@H](CC(C)C)C(=O)N[C@@H](CO)C(=O)NCC(=O)N[C@H](C(=O)N[C@@H](CC(=O)O)C(=O)N[C@@H](CCCN=C(N)N)C(=O)N[C@H](C(=O)N[C@H](C(=O)N[C@@H](CCCN=C(N)N)C(=O)N[C@@H](C)C(=O)N[C@@H](CCCCN)C(=O)N[C@@H](CC(C)C)C(=O)NCC(=O)N[C@@H](CCCCN)C(=O)O)[C@@H](C)CC)[C@@H](C)CC)[C@@H](C)O [RYIYLSGTDRIIRAKLGK]

Source: DBAASP
